This note sets out measurements from article PMC12657586, “Therapeutic effect of an MRGPRX2/MRGPRB2 antagonist on LL-37-induced rosacea-like inflammation in mice” (Inflammation Research, 2025).

The target of this experiment is T1, MRGPRX2 (Mas-related G protein-coupled receptor X2) (Homo sapiens, UniProt Q96LB1).
T1 sequence (Q96LB1 1-330): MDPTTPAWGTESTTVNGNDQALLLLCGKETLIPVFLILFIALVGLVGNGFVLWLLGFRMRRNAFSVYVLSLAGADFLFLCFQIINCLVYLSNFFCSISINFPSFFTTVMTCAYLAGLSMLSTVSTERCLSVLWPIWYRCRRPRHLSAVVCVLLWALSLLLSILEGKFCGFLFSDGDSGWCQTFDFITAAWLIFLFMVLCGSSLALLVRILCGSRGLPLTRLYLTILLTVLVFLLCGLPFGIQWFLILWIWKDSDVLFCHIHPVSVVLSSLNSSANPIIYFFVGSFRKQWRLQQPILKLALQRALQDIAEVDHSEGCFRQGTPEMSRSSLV
Kind of experiment: Fluo-4 calcium flux assay in MRGPRX2-transfected HEK-293 cells, antagonism of LL-37. The format is cell-based. A general note: Calcium assays in cells follow changes in intracellular calcium, usually with a dye or a luminescent sensor.

pIC50: −log10 of the molar value.

As usually defined, the pIC50 is the IC50 on a negative log10 scale, so that one unit is a factor of ten. For `COC(=O)c1cc2cc(NC(N)=O)ccc2cc1-c1cc2c3c(c(O)ccc3c1)C(C)C(C=O)=C2` (stereo not shown) [GE1111], the pIC50 was 4.91.
